Measured values reported in paper PMC10747599 (Viruses, 2023).

Tests used:
[1] = test system: HBEC-5i cells; assay: MTT cell viability assay, HBEC-5i; conditions: HBEC-5i; for toxicity at lower concentrations: 20 µM to 2.5 µM, MOI 0.1, 48 h (Figure 5); for reduction in cell viability / toxicity: 20 µM, 48 h
[2] = test system: SLEV infection in Vero CCL81 cells; type: cell-based, St. Louis encephalitis virus (SLEV BeH 355964); conditions: 20 µM
[3] = test system: Huh-7 cells; assay: MTT cell viability assay, Huh-7; conditions: Huh-7, 48 h; for loss/reduction in cell viability vs vehicle-treated cells: 20 µM
[4] = test system: SLEV; assay: Viral load by plaque-forming assay, SLEV-infected HBEC-5i; type: cell-based, St. Louis encephalitis virus (SLEV BeH 355964)
[5] = Confirmatory dose-response assay, cytotoxicity (CC50); conditions: African green monkey, Vero CCL81 cells
[6] = test system: SLEV infection in Vero CCL81 cells; assay: microbe, parasite or virus in culture; type: cell-based, St. Louis encephalitis virus (SLEV BeH 355964); conditions: for EC50: St. Louis encephalitis virus, 72 h
[7] = test system: SLEV; assay: Viral load by plaque-forming assay, SLEV-infected Huh-7; type: cell-based, St. Louis encephalitis virus (SLEV BeH 355964); conditions: Huh-7, MOI 0.1, 48 h
[8] = test system: SLEV; assay: Viral load by plaque-forming assay, SLEV-infected Vero CCL81; type: cell-based, St. Louis encephalitis virus (SLEV BeH 355964); conditions: Vero CCL81, MOI 0.1
[9] = MTT cell viability assay, HBEC-5i; conditions: human, HBEC-5i cells
[10] = test system: Vero CCL81 cells; assay: Confirmatory dose-response assay, cytotoxicity (CC50); conditions: Vero CCL81, dose-response 100 to 0.32 µM
[11] = test system: Vero CCL81 cells; assay: MTT cell viability assay, Vero CCL81

Q: Which “toxicity at lower concentrations” value [1] does the source give for `OCCN1CCN(CCCN2c3ccccc3Sc3ccc(C(F)(F)F)cc32)CC1` [Fluphenazine] here?
A: not toxic

Q: And the “reduction in cell viability / toxicity” value [1]?
A: not toxic

Q: What about the “inhibition of SLEV-induced CPE (hit call, cytoprotective effect)” value (from here on “inhibition of SLEV-induced CPE”) [2] of the same molecule?
A: cytoprotective effect

Q: What about the “loss/reduction in cell viability vs vehicle-treated cells” value (shortened to “loss/reduction in cell viability”) [3] of the same molecule?
A: 90%

Q: And the “reduction in viral titers in culture supernatant” value (“reduction in viral titers” below) ([4]; 20 µM, MOI 0.1, 48 h)?
A: > 100 fold

Q: What about the “reduction in viral load” value ([4]; 20 µM, MOI 0.1, 48 h, concentration series (Figure 5)) of the same molecule?
A: over 50 fold

Q: And the CC50 at 72 h [5]?
A: 30.2 µM

Q: Which “toxicity at lower concentrations” value [1] does the source give for `CCN(CC)CCOc1ccc(C(O)(Cc2ccc(Cl)cc2)c2ccc(C)cc2)cc1` (stereo not shown) [Triparanol] here?
A: not toxic

Q: What about the “reduction in cell viability / toxicity” value [1] of the same molecule?
A: ~60%

Q: And the EC50 [6]?
A: 0.9 µM

Q: What about the “inhibition of SLEV-induced CPE” value [2] of the same molecule?
A: cytoprotective effect

Q: What about the “loss/reduction in cell viability” value [3] of the same molecule?
A: 90%

Q: And the “antiviral effect (viral load)” value ([4]; 2.5 µM, MOI 0.1, 48 h (Figure 5))?
A: lost

Q: And the “antiviral effect (viral load)” value ([4]; 5 µM, MOI 0.1, 48 h (Figure 5))?
A: lost

Q: What about the “reduction in viral load vs vehicle-treated infected group” value ([4]; 10 µM, MOI 0.1, 48 h (Figure 5)) of the same molecule?
A: over 10 fold

Q: And the CC50 at 72 h [5]?
A: 18.5 µM

Q: Which results are given for `CCCCc1oc2ccccc2c1C(=O)c1cc(I)c(OCCN(CC)CC)c(I)c1` [Amiodarone]?
A: inhibition of SLEV-induced CPE (hit call, cytoprotective effect) [2]: cytoprotective effect; loss/reduction in cell viability vs vehicle-treated cells [3]: approx. 10%; reduction in viral titers in culture supernatant ([4]; 20 µM, MOI 0.1, 48 h): over 10 fold; reduction in viral load ([7]; 20 µM): not significant

Q: Which “inhibition of SLEV-induced CPE” value [2] does the source give for `FC(F)(F)c1ccc(CNc2ccc(Cc3c[nH]c4ncc(Cl)cc34)cn2)cn1` [Pexidartanib] here?
A: cytoprotective effect

Q: Which “reduction in cell viability / toxicity” value [1] does the source give for `C[C@@H]1CCCN1CCc1cc2cc(-c3ccc(C#N)cc3)ccc2o1` [ABT-239, 4-(2-{2-[(2R)-2-Methylpyrrolidinyl]ethyl}-benzofuran-5-yl)benzonitrile] here?
A: not toxic

Q: What about the “reduction in viral load relative to vehicle-treated controls” value ([8]; 20 µM) of the same molecule?
A: approximately 10 fold

Q: What about the EC50 [6] of the same molecule?
A: 3.4 µM

Q: And the “inhibition of SLEV-induced CPE” value [2]?
A: cytoprotective effect

Q: What about the “loss/reduction in cell viability” value [3] of the same molecule?
A: approx. 10%

Q: And the “reduction in viral titers” value ([4]; 20 µM, MOI 0.1, 48 h)?
A: approx. 10 fold

Q: What about the CC50 at 72 h [5] of the same molecule?
A: 80.2 µM

Q: Which viability at 48 h, 20 µM [9] does the source give for `COc1cccc(-c2ccc(NC(=O)C3=C(C(=O)O)CCC3)c(F)c2)c1` [Vidofludimus] here?
A: ≤ 90%

Q: And the “reduction in viral load relative to vehicle-treated controls” value ([8]; 20 µM)?
A: approximately 10 fold

Q: What about the EC50 [6] of the same molecule?
A: 8.2 µM

Q: And the “inhibition of SLEV-induced CPE” value [2]?
A: cytoprotective effect

Q: What about the “loss/reduction in cell viability” value [3] of the same molecule?
A: approx. 10%

Q: What about the “reduction in viral titers” value ([4]; 20 µM, MOI 0.1, 48 h) of the same molecule?
A: No antiviral activity

Q: What about the CC50 at 72 h [5] of the same molecule?
A: > 100 µM

Q: What about the CC50 [10] of the same molecule?
A: least cytotoxic

Q: With `C[C@@]1(O)[C@H](O)[C@@H](CO)O[C@H]1n1ccc2c(N)ncnc21` [7DMA, 7-deaza-2′-C-methyl-D-adenosine] as the molecule, how does the “reduction in viral load relative to vehicle-treated controls” value ([8]; 40 µM (7DMA)) read?
A: approximately 10 fold

Q: And the “reduction in cell viability” value ([11]; 40 µM (7DMA), Vero CCL81)?
A: less than 10%

Q: And the EC50 [6]?
A: 5.1 µM

Q: And the “reduction in cell viability vs vehicle-treated cells” value ([3]; 40 µM (7DMA))?
A: approx. 10%

Q: What about the CC50 at 72 h [5] of the same molecule?
A: > 100 µM

Q: And the CC50 [10]?
A: least cytotoxic

Q: And the “reduction in viral load” value ([7]; 40 µM (7DMA))?
A: 10 fold

Q: For `CC[C@@H]([C@H](C)O)n1ncn(-c2ccc(N3CCN(c4ccc(OC[C@@H]5CO[C@@](Cn6cncn6)(c6ccc(F)cc6F)C5)cc4)CC3)cc2)c1=O` [Posaconazole], which “reduction in cell viability / toxicity” value [1] is on record?
A: approximately 70%

Q: And the “reduction in cell viability” value ([11]; 20 µM, Vero CCL81, vs non-treated controls)?
A: 40%

Q: And the EC50 [6]?
A: 0.4 µM

Q: And the “Selectivity Index (SI, CC50/EC50 ratio)” value ([6]; Vero CCL81)?
A: ≥ 12

Q: And the “inhibition of SLEV-induced CPE” value [2]?
A: cytoprotective effect

Q: And the “loss/reduction in cell viability” value [3]?
A: 50%

Q: What about the CC50 at 72 h [5] of the same molecule?
A: > 100 µM

Q: And the CC50 [10]?
A: least cytotoxic

Q: Which “inhibition of SLEV-induced CPE” value [2] does the source give for `NCCc1cn(S(=O)(=O)c2c(Cl)nc3sccn23)c2ccccc12` [SAX-187] here?
A: cytoprotective effect
